# Experimental data published in ChEMBL document CHEMBL4359925, “Rational discovery of a highly novel and selective mTOR inhibitor” (Bioorg Med Chem Lett, 2019).
# Columns and labels:
# [1] = biological target: Phosphatidylinositol 4,5-bisphosphate 3-kinase catalytic subunit alpha isoform (Homo sapiens, UniProt P42336); experiment: Inhibition of PI3K alpha (unknown origin)
# [2] = biological target: Serine/threonine-protein kinase mTOR (Homo sapiens, UniProt P42345); experiment: Inhibition of human mTOR measured after 30 mins in presence of ATP by Lanthascreen TR-FRET assay
# Chain of Phosphatidylinositol 4,5-bisphosphate 3-kinase catalytic subunit alpha isoform (P42336 whole entry, canonical isoform): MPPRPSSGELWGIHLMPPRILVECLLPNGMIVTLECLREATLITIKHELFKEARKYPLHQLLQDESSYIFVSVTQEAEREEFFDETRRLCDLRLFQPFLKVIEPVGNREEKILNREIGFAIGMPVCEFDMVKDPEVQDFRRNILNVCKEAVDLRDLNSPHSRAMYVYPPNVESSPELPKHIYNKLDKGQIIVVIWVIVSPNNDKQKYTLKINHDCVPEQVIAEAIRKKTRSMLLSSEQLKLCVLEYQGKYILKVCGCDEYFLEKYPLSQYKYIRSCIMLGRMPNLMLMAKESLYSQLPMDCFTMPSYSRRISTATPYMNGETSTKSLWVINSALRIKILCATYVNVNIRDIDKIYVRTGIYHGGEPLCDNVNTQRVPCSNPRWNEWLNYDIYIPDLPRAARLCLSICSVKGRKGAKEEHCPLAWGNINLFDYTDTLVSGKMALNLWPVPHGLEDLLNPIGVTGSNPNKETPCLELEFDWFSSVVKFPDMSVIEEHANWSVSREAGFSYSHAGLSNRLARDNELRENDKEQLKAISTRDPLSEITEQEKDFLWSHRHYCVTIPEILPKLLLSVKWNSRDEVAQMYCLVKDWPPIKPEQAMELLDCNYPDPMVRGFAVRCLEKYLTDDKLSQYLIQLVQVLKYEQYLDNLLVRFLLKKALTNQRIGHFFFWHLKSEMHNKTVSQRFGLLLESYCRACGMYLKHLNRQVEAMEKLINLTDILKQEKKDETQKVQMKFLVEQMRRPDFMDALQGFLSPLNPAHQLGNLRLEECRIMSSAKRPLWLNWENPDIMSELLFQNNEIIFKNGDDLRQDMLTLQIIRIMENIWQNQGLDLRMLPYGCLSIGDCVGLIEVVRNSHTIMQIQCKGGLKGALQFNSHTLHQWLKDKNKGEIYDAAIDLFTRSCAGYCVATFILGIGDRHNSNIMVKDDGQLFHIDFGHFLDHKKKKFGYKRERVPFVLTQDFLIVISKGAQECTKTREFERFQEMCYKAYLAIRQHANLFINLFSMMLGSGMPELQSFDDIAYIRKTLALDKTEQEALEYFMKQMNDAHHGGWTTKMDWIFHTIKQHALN
SMILES,IC50 [1] [nM],IC50 [2] [nM]
CNC(=O)Nc1ccc(-c2ncc3c(n2)N2CCOCC2C(=O)N3CC2CC2)cc1 (stereo not given),20,31.6
CNC(=O)Nc1ccc(-c2ncc3c(n2)N2CCOCC2CC(=O)N3)cc1 (stereo not given),2510,1580

# Continued by falling IC50 [1], values first:
IC50 [1] [nM],IC50 [2] [nM],SMILES
794,6.31,C[C@@]12COCCN1c1nc(-c3ccc(NC(=O)NC4CC4)cc3)ncc1N(CC1CC1)C2=O
79.4,7.94,CNC(=O)Nc1ccc(-c2ncc3c(n2)N2CCOC[C@@]2(C)C(=O)N3CC2CC2)cc1
31.6,316,CNC(=O)Nc1ccc(-c2ncc3c(n2)N2CCOCC2C(=O)N3)cc1 (stereo not given)
